Literature values, collected in US20080241292A1, “COMPOSITION AND METHOD FOR WEIGHT LOSS” (IOMEDIX DEVELOPMENT INTERNATIONAL SRL, priority 2006, published 2008).
Ends that are not written are not given here.

What was measured:
[1] = humans
[2] = exogenous administration to humans

Molecule: Glucagon-like peptide-1 (HAEGTFTSDVSSYLEGQAAKEFIAWLVKGR; ends and bridges not checked; UniProt P01275 98-127, looked up) [GLP-1, satiety signal peptide]
- satiety [1]: increase satiety

B1: Cholecystokinin (peptide, UniProt P06307 21-115, looked up)
Cholecystokinin: QPVPPADPAGSGLQRAEEAPRRQLRVSQRTDGESRAHLGALLARYIQQARKAPSGRMSIVKNLQNLDPSHRISDRDYMGWMDFGRRSAEEYEYPS
modifications: Cholecystokinin
notes: satiety signal peptide secreted from intestinal cells in response to nutrients
- food intake [2]: reduction in food intake
